# Values of other authors in patent publication US20040208942A1, “Alpha lipoic acid based food supplement for increasing lean muscle mass and strength” (priority 2000, published 2004).
compound,measurement,setting,value
O=C(O)CCCCC1CCSS1 (stereo not drawn) [α lipoic acid],body's utilization of blood sugar,type II diabetes,significantly increase
same,increase of the metabolic clearance rate of glucose,type II diabetics,50%
